Laboratory results published in patent publication US8138219B2, “Tryptamine sulfonamides as 5-HT6 antagonists” (Merck Sharp & Dohme Corp., priority 2007, dated 2012).
Read-outs that look alike come from different tables or passages of the source.

Legend:
Mouse 5-HT6 = biological target: T1, Mouse 5-HT6 (Mus musculus, UniProt Q9R1C8); assay: 5-HT6 receptor binding assay ([3H]5-HT displacement, SPA), mouse receptor
T1 construct: expressed in transfected cells
Protocol: (§1) 5-HT6 Receptor Binding Assay
(§2) Affinity (IC50) of a compound for cloned human, rat, or mouse 5-HT6 receptor was measured by its ability to displace [^3H]5-HT using cell membranes prepared from cultured cells and scintillation proximity assay (SPA) beads that bind to cell membranes (Catalog No. RPNQ0001; GE Healthcare Life Sciences, Piscataway, N.J.). Assays were carried out in 200 μl binding buffer (50 mM Tris-HCl, pH 7.4, 5 mM MgCl2, 0.5 mM EDTA, 10 μM pargyline and 0.1% ascorbic acid) in 96-well plates. Cell membranes were re-suspended in binding buffer to final concentration of up to 0.2 mg protein/ml and mixed with reconstituted SPA beads to a final concentration of 0.25 mg/ml. To each well, […] of above mixture, 50 of cold compound (to 10^−10 to 10^−5 M final concentration) and 50 μl of [^3H]5-HT radioligand (specific activity, 100 Ci/mmol, GE Healthcare Life Sciences; final concentration, 5 nM) were added. Following 1 h incubation at room temperature, the radioactivity bound to the cell membranes was measured on a scintillation counter.

[1] = tested on: 5-HT6 receptor expressed in CHO cells; assay: 5-HT6 receptor functional activity assay (cellular cAMP levels, CHO cells); format: cell-based, human, rat, or mouse; settings: concentration up to 10 micromolar; cAMP accumulation; species not specified
Protocol: 5-HT6 Receptor Functional Activity Assay.
The functional activation of human, rat, or mouse 5-HT6 receptor expressed in CHO cells was determined by measuring cellular cAMP levels following the exposure of the cells to a compound using the SPA cAMP Screening System (Catalog No. RPA556, GE Healthcare) in 96-well OptiPlates (Catalog No. 6005190, PerkinElmer, Boston, Mass.). Cells expressing recombinant receptors were harvested and then re-suspended at approximately 2.0×10^6 cells/ml in assay medium containing Earle's Balanced Salt Solution (EBSS, pH 7.4) supplemented with 25 mM Hepes, 5 mM MgCl2 and 0.05% BSA. Cells (50 μl, ˜10^5 cells) were transferred to wells, to give a final volume of 100 μl containing various concentrations of compounds. The plate was incubated at 37° C. for 30 min and the reaction was terminated by boiling for 3 min. The accumulation of cAMP in 15 μl lysate was measured according to manufacture's instructions.

Human 5-HT6 = biological target: T2, Human 5-HT6 (Homo sapiens, UniProt P50406); assay: 5-HT6 receptor binding assay ([3H]5-HT displacement, SPA), human receptor
T2 construct: expressed in transfected cells
T2 sequence (P50406 whole entry): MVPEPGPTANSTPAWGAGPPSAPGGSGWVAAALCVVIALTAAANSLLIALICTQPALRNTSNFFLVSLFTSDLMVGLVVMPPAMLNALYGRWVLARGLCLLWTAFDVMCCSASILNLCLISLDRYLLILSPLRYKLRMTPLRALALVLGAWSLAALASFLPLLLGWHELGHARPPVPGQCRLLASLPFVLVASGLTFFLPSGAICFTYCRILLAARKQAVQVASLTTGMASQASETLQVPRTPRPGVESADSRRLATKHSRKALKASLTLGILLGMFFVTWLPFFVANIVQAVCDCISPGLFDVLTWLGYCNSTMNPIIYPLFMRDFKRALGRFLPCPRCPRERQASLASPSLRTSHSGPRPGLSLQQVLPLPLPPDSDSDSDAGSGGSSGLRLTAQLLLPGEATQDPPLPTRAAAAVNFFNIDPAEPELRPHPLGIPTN
Protocol: as §1, §2

[2] = cloned mouse 5-HT6 receptor, cell membranes, [3H]5-HT 5 nM, read-out: Mouse 5-HT6 binding IC50
[3] = cloned human 5-HT6 receptor, cell membranes, [3H]5-HT 5 nM, read-out: Human 5-HT6 binding IC50

T1 sequence (Q9R1C8 whole entry): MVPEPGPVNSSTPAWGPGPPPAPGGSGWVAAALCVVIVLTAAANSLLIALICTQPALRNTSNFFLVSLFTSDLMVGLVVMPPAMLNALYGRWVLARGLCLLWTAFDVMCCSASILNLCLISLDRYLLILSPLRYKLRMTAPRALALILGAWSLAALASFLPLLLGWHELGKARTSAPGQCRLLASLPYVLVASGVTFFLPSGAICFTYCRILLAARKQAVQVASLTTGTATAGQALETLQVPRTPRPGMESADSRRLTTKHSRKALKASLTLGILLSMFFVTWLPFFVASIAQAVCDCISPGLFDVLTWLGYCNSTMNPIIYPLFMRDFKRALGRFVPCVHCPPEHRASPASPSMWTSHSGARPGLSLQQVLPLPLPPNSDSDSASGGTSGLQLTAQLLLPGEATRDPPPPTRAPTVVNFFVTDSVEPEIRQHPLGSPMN

| IC50 (Mouse 5-HT6; [2]) | IC50 (Human 5-HT6; [3]) | SMILES | functional activation of 5-HT6 receptor (detectable activity) [1] | IC50 (Mouse 5-HT6) | IC50 (Human 5-HT6) |
| --- | --- | --- | --- | --- | --- |
| 2 nM | 0.2 nM | Cl.O=S(=O)(c1ccccc1)n1cc(CCNCc2cccc(OCC(F)(F)C(F)F)c2)c2ccc(F)cc21 [Example 1] | did not show detectable activity |  |  |
|  |  | O=S(=O)(c1ccc(OC(F)(F)F)cc1)n1cc(CCNCc2cccc(OCC(F)(F)C(F)F)c2)c2ccc(F)cc21 [Example 2] |  | 211 nM | 46.4 nM |
| 170 nM | 0.593 nM | COc1cccc(S(=O)(=O)n2cc(CCNCc3cccc(OCC(F)(F)C(F)F)c3)c3ccc(F)cc32)c1 [Example 3] |  |  |  |
| 60.2 nM | 0.805 nM | O=S(=O)(c1cccc(Cl)c1)n1cc(CCNCc2cccc(OCC(F)(F)C(F)F)c2)c2ccc(F)cc21 [Example 4] |  |  |  |
| 148 nM | 2.88 nM | O=S(=O)(c1cc(Cl)cc(Cl)c1)n1cc(CCNCc2cccc(OCC(F)(F)C(F)F)c2)c2ccc(F)cc21 [Example 5] |  |  |  |
|  |  | O=S(=O)(c1ccc(F)cc1)n1cc(CCNCc2cccc(OCC(F)(F)C(F)F)c2)c2ccc(F)cc21 [Example 6] |  | 21.6 nM | 2.88 nM |
| 7.27 nM | 3.4 nM | O=S(=O)(c1ccc(Cl)cc1)n1cc(CCNCc2cccc(OCC(F)(F)C(F)F)c2)c2ccc(F)cc21 [Example 7] |  |  |  |
| 15.4 nM | 2.05 nM | O=S(=O)(c1ccc(Br)cc1)n1cc(CCNCc2cccc(OCC(F)(F)C(F)F)c2)c2ccc(F)cc21 [Example 8] |  |  |  |
| 127 nM | 8.85 nM | O=S(=O)(c1ccc(F)c(Cl)c1)n1cc(CCNCc2cccc(OCC(F)(F)C(F)F)c2)c2ccc(F)cc21 [Example 9] |  |  |  |
| 60 nM | 0.626 nM | O=S(=O)(c1cccc(C(F)(F)F)c1)n1cc(CCNCc2cccc(OCC(F)(F)C(F)F)c2)c2ccc(F)cc21 [Example 10] |  |  |  |
| 17.6 nM | 0.371 nM | O=S(=O)(c1cccc(F)c1)n1cc(CCNCc2cccc(OCC(F)(F)C(F)F)c2)c2ccc(F)cc21 [Example 11] |  |  |  |
|  |  | CS(=O)(=O)n1cc(CCNCc2cccc(OCC(F)(F)C(F)F)c2)c2ccc(F)cc21 [Example 12] |  | 9.51 nM | 1.61 nM |
|  |  | CCS(=O)(=O)n1cc(CCNCc2cccc(OCC(F)(F)C(F)F)c2)c2ccc(F)cc21 [Example 13] |  | 11.7 nM | 2.62 nM |
| 57.1 nM | 20 nM | CC(C)S(=O)(=O)n1cc(CCNCc2cccc(OCC(F)(F)C(F)F)c2)c2ccc(F)cc21 [Example 14] |  |  |  |
| 187 nM | 10.2 nM | COc1ccc(S(=O)(=O)n2cc(CCNCc3cccc(OCC(F)(F)C(F)F)c3)c3ccc(F)cc32)cc1 [Example 15] |  |  |  |
